# In patent publication US8962842B2, “2-pyridone antimicrobial compositions” (priority 2010, dated 2015):
# Where two headings read alike, the source gives them in different places.
# Experiment: Mouse pharmacokinetics, intravenous or oral 10 mg/kg (Table 9)
# Format: in vivo
# Conditions: mice, plasma; for half-life: read-out: Elimination Half life (converted); for bioavailability: p.o. vs i.v.
# Method: Groups of 21 mice were treated with select examples at 10 mg/kg. Mice were treated either intravenously or orally (by gavage). At predetermined time points (0.25, 0.5, 1, 2, 4, 8 and 24 hours), 3 mice were sacrificed and blood samples drawn by cardiac puncture. Plasma was obtained by centrifugation and stored at −80° C. Plasma samples were analyzed by LC-MS for remaining amounts of compounds.
SMILES,"half-life (iv, i.v.) [h]",AUC(0-inf) (iv) [ng·h/mL],Cmax (iv) [ng/mL],bioavailability (po) [%],"half-life (po, p.o.) [h]",AUC(0-inf) (po) [ng·h/mL],Cmax (po) [ng/mL]
Cc1c(-c2ccc(N)c(F)c2)ccn2c(=O)c(C(=O)[O-])cc(C3CC3)c12.[K+] [Ex. 2 K salt],1.48,1340,2100,47.8,1.51,642,394
Cc1c(-c2ccc(N)nc2)ccn2c(=O)c(C(=O)[O-])cc(C3CC3)c12.[K+] [Ex. 21 K salt],1.31,–,467,–,2.11,471,242
Cc1c(-c2ccc3[nH]ncc3c2)ccn2c(=O)c(C(=O)[O-])cc(C3CC3)c12.[K+] [Ex. 23 K salt],1.16,2040,3430,85.9,0.988,1750,866
Cc1c(-c2cc(F)c(N)cc2F)ccn2c(=O)c(C(=O)[O-])cc(C3CC3)c12.[K+] [Ex. 28 K salt],1.07,1650,2850,43,3.33,710,227
Cc1c(-c2ccc(O)cc2)ccn2c(=O)c(C(=O)[O-])cc(C3CC3)c12.[K+] [Ex. 46 K salt],1.07,474,1060,82.1,4.16,389,156
